± gives the standard deviation of the averaged measurements.
Assays:
Assay in all cases: drug sensitivity score (DSS) (DSS score); higher = more sensitive (stronger growth inhibition); extreme values may be limits of the assay
[1] = test system: Ba/F3 P210-BCR-ABL1 RUNX1wt/wt control (mouse)
Outline: (§1)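 Each value is a drug sensitivity score derived from CellTiter-Glo luminescence scaled between vehicle and positive-control wells. Mouse Ba/F3 clones, CRISPR/Cas9-edited at a target exon or edited controls, were seeded at 10,000 cells per well in RPMI with 10% FBS and treated for 72 h at 37 °C and 5% CO2. Compounds from a 528-compound library were tested at five concentrations over a 10,000-fold range, and scores were averaged over two replicates.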

[2] = test system: Ba/F3 P210-BCR-ABL1 RUNX1-/- (mouse)
Outline: as §1

[3] = test system: Ba/F3 P210-BCR-ABL1 RUNX1-/mut (mouse)
Outline: as §1

Compound	drug sensitivity score [1]	drug sensitivity score [2]	drug sensitivity score [3]
O=S(=O)(c1cccc2c(O)nccc12)N1CCCNCC1 [Hydroxyfasudil]	0.2 ± 0.28	0.15 ± 0.21	0.4 ± 0.57
COc1cc2c(cc1-c1c(C)noc1C)ncc1[nH]c(=O)n([C@H](C)c3ccccn3)c12 [I-BET151]	13.9	18.6 ± 0.78	18.4 ± 2.3
O=C(O)c1ccc(O)c2ncccc12 [IOX-1]	1.75 ± 0.21	2.5 ± 2	2.4 ± 2.8
O=C(O)CNC(=O)c1c(O)c2ccccc2n(Cc2ccccc2)c1=O [IOX-2]	0	0	0.3 ± 0.42
C=CC(=O)N1CCC[C@@H](n2nc(-c3ccc(Oc4ccccc4)cc3)c3c(N)ncnc32)C1 [Ibrutinib]	0.35 ± 0.49	1.5 ± 0.71	0.2 ± 0.28
C#Cc1cccc(Nc2ncnc3cc4c(cc23)OCCOCCOCCO4)c1 [Icotinib]	0	0	0
COc1cc(C(=O)O)ccc1NC(=O)[C@@H]1N[C@@H](CC(C)(C)C)[C@](C#N)(c2ccc(Cl)cc2F)[C@H]1c1cccc(Cl)c1F [Idasanutlin]	5.05 ± 0.21	9.4 ± 13	8.5 ± 12
CC[C@H](Nc1ncnc2[nH]cnc12)c1nc2cccc(F)c2c(=O)n1-c1ccccc1 [Idelalisib]	0	4.7 ± 2.5	2.3 ± 2.5
CCN1CCN(c2ccc(Nc3cc(N(C)C(=O)Nc4c(Cl)c(OC)cc(OC)c4Cl)ncn3)cc2)CC1 [Infigratinib]	0	0	0
CC(C)NC[C@@H](C(=O)N1CCN(c2ncnc3c2[C@H](C)C[C@H]3O)CC1)c1ccc(Cl)cc1 [Ipatasertib]	0.3 ± 0.42	4.75 ± 0.92	3.4 ± 2.7
CCC(C)n1ncn(-c2ccc(N3CCN(c4ccc(OCC5COC(Cn6cncn6)(c6ccc(Cl)cc6Cl)O5)cc4)CC3)cc2)c1=O (centres undefined) [Itraconazole]	7.1 ± 1.3	3.8 ± 5.4	4.6 ± 6.5
N#Cc1ccnc(N2C(=O)CC[C@H]2C(=O)N(c2cncc(F)c2)[C@H](C(=O)NC2CC(F)(F)C2)c2ccccc2Cl)c1 [Ivosidenib]	0	0.3 ± 0.42	1.35 ± 1.9
CC(C)C[C@H](NC(=O)CNC(=O)c1cc(Cl)ccc1Cl)B(O)O [Ixazomib]	13.7 ± 1.4	13.5 ± 2.4	8.95 ± 1.2
Nc1cc(COc2c(Cl)cc(C[C@H](N)C(=O)O)cc2Cl)c2oc(-c3ccccc3)nc2c1 [JPH203]	0	0	0
CC(C)NC(=O)COc1cccc(-c2nc(Nc3ccc4[nH]ncc4c3)c3ccccc3n2)c1 [KD025]	0	2 ± 1.7	2.3 ± 1.4
O=C(Nc1cnn2ccc(N3CCC[C@@H]3c3cc(F)ccc3F)nc12)N1CC[C@H](O)C1 [Larotrectinib]	0.7 ± 0.71	0	0.05 ± 0.071
Oc1ccc2c(c1)CC[C@H](c1ccccc1)[C@@H]2c1ccc(OCCN2CCCC2)cc1 [Lasofoxifene]	0	0.15 ± 0.21	0.65 ± 0.92
COc1cc2nccc(Oc3ccc(NC(=O)NC4CC4)c(Cl)c3)c2cc1C(N)=O [Lenvatinib]	0	2.7 ± 1.1	0.4 ± 0.57
Cc1ccc(F)c(NC(=O)Nc2ccc(-c3cccc4[nH]nc(N)c34)cc2)c1 [Linifanib]	0.1 ± 0.14	1.1 ± 1.6	0.1 ± 0.14
CCNCCS(=O)(=O)NC[C@@]1(c2ccccc2)SC(NC(=O)C(C)(C)C)=NN1C(=O)C(C)(C)C [Litronesib]	10.9 ± 0.28	24.2 ± 1.6	21.5 ± 2.4
Nc1nc(OCc2cc(Br)cs2)c2[nH]cnc2n1 [Lomeguatrib]	0	0	0.05 ± 0.071
NC(=O)N1CCC(CC(=O)N2CCC([C@H]3c4ncc(Br)cc4CCc4cc(Cl)cc(Br)c43)CC2)CC1 [Lonafarnib]	8.2 ± 0.14	12.1 ± 17	13.8 ± 9.8
Cc1c(F)cc(C(=O)NC2CC2)cc1-c1ccc(C(=O)NCC(C)(C)C)cn1 [Losmapimod]	0.15 ± 0.21	2.3 ± 2.4	1.8 ± 2.5

— the supplement of paper PMC8024199
